In ChEMBL document CHEMBL1773004, “1-[(1-methyl-1H-imidazol-2-yl)methyl]-4-phenylpiperidines as mGluR2 positive allosteric modulators for the treatment of psychosis” (J Med Chem, 2011) one finds Ki and EC50 data, which are given here for eight molecules.

Each structure is given as a SMILES string. pEC50, pKi: −log10 of the molar value.

D(2) dopamine receptor, sequence (P61169 whole entry): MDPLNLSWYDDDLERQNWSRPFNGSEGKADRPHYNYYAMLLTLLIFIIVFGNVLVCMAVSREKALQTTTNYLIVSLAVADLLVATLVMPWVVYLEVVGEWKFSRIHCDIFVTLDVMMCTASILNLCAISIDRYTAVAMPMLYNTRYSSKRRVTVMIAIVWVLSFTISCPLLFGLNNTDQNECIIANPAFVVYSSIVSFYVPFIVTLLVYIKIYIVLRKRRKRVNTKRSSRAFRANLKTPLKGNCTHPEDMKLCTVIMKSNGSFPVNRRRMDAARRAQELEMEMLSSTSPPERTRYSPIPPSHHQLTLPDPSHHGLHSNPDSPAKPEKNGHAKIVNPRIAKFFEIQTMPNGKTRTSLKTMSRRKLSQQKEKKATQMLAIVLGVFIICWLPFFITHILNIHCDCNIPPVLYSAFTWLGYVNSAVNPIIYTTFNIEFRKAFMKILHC

The first assay concerns the target D(2) dopamine receptor (Rattus norvegicus, UniProt P61169). Put plainly: Displacement of [3H]spiperone from dopamine D2 receptor in rat corpus striatum by beta plate scintillation counting. The format is tissue-based.
Molecule `Cn1c(CN2CCC(c3ccc(C(F)(F)F)cc3F)CC2)nc2ncccc21` showed a negative-log Ki (pKi) of 5.75.
Still for that read-out and setting: then `Cn1c(CN2CCC(c3ccc(C(F)(F)F)cc3)CC2)nc2cnccc21`, with 6.17; and `C[C@H]1CN(Cc2nc3ncccc3n2C)CC[C@H]1c1ccc(Cl)cc1F`, with 5.79; and `C[C@H]1CN(Cc2nc3ncccc3n2C)CC[C@H]1c1ccc(C(F)(F)F)cc1`, with less than 5.55.
Regarding `Cn1c(CN2CCC(c3ccc(OC(F)(F)F)cc3F)CC2)nc2ncccc21`, the pKi is 5.93.
Same read-out and setting: then `COc1cc(C(F)(F)F)ccc1C1CCN(Cc2nc3ncccc3n2C)CC1`, with 5.61; and `C[C@@H]1C[C@H](c2ccc(C(F)(F)F)cc2)CCN1Cc1nc2ncccc2n1C`, with 6.23.
The same measure, in the same setting: the same measure for `Cn1c(CN2CCC(c3ccc(C(F)(F)F)cc3)CC2)nc2ccccc21`: 6.25.

A further assay deals with Metabotropic glutamate receptor 2 (Rattus norvegicus, UniProt P31421). Briefly: Positive allosteric modulation of rat mGluR2 expressed in HEK293 cells co-expressing Galpha15 G protein assessed as increase in glutamate-induced intracellular calcium release by FLIPR assay. It counts as functional, cell-based. On the technique in general: A change in cytosolic calcium serves as a functional read-out for many receptors and channels.
Metabotropic glutamate receptor 2, sequence (P31421 whole entry): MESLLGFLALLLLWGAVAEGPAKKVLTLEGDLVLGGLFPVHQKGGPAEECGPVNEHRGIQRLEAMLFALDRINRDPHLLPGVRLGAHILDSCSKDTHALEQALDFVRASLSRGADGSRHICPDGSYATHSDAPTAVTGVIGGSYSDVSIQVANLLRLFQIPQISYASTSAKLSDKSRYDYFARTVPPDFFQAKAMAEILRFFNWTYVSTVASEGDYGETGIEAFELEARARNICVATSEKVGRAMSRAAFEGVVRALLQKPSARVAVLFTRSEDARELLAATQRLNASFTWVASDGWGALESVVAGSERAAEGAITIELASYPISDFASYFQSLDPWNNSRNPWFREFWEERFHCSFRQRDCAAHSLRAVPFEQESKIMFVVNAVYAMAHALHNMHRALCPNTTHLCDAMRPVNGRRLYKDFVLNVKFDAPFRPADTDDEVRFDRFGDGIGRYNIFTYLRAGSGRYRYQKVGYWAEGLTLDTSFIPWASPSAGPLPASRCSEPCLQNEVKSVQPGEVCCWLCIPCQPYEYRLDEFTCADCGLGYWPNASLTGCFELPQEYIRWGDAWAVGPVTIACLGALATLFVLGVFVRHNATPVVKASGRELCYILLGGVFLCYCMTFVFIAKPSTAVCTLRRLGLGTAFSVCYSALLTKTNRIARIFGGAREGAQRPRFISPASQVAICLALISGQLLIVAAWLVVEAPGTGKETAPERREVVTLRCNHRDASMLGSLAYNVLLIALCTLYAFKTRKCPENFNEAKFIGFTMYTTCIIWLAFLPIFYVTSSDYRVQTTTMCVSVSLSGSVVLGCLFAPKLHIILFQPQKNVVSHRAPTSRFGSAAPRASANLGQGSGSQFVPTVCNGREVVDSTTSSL
`Cn1c(CN2CCC(c3ccc(C(F)(F)F)cc3F)CC2)nc2ncccc21`: the pEC50 was 7.60.
Same read-out and setting: the same measure for `Cn1c(CN2CCC(c3ccc(C(F)(F)F)cc3)CC2)nc2cnccc21`: 6.77; for `C[C@H]1CN(Cc2nc3ncccc3n2C)CC[C@H]1c1ccc(Cl)cc1F`: 7.55.
On the same count and under the same terms, the same measure for `C[C@H]1CN(Cc2nc3ncccc3n2C)CC[C@H]1c1ccc(C(F)(F)F)cc1`: 7.48.
`Cn1c(CN2CCC(c3ccc(OC(F)(F)F)cc3F)CC2)nc2ncccc21`: the pEC50 was 7.60.
On the same count and under the same terms, then `COc1cc(C(F)(F)F)ccc1C1CCN(Cc2nc3ncccc3n2C)CC1`, with 7.89; and `C[C@@H]1C[C@H](c2ccc(C(F)(F)F)cc2)CCN1Cc1nc2ncccc2n1C`, with 6.34.
Take `Cn1c(CN2CCC(c3ccc(C(F)(F)F)cc3)CC2)nc2ccccc21`: the pEC50 was 7.11.

Broadly, the pKi is the negative decadic logarithm of the Ki, by convention in mol/L. In general, pEC50 refers to the negative decadic logarithm of the EC50, by convention in mol/L.
